Values belong to the molecule of their own block, whether it stands above or below them.
Key:
[1] = Permeability in RRCK cells; format: ADME, cell-based, Canis lupus familiaris, MDCKII-LE; details: dog, MDCK; read-out: permeability
[2] = Drug level in hamster liver microsomes treated with N-((3R,4S)-3-hydroxytetrahydro-2H-pyran-4-yl)-1-(4-(1-methyl-1H-pyrazol-3-yl)benzyl)-1H-pyrrolo[3,2-b]pyridine-3-carboxamide at 20 uM by UHPLC-UV-HRMS analysis; format: ADME, microsome; details: cricetinae
[3] = Drug metabolism in dexamethasone-induced rat liver microsomes assessed as formation of 4-(hydroxy(4-(thiazol-4-yl)phenyl)methyl)-N-((3R,4S)-3-hydroxytetrahydro-2H-pyran-4-yl)-5-methylpicolinamide at 20 uM after 60 mins by UHPLC-UV-HRMS analysis; format: ADME, microsome; details: 1 h
[4] = Drug metabolism in dexamethasone-induced rat liver microsomes assessed as formation of N-((3R,4S)-2,3-dihydroxytetrahydro-2H-pyran-4-yl)-5-methyl-4-(4-(thiazol-4-yl)benzyl)picolinamide at 20 uM after 60 mins by UHPLC-UV-HRMS analysis; format: ADME, microsome; details: 1 h
[5] = Drug level in rat liver microsomes treated with N-((3R,4S)-3-hydroxytetrahydro-2H-pyran-4-yl)-5-methyl-1-(4-(1-methyl-1H-pyrazol-3-yl)benzyl)-1H-pyrrolo[3,2-b]pyridine-3-carboxamide at 20 uM after 70 mins by UHPLC-UV-HRMS analysis; format: ADME, microsome
[6] = target: T1, Muscarinic acetylcholine receptor M1 (Homo sapiens, UniProt P11229); assay: Positive allosteric modulation of human muscarinic M1 receptor expressed in CHO cells assessed as increase in ACh-induced intracellular calcium level preincubated for 10 mins followed by ACh addition measured every 2 secs for 80 secs by Fluo-4 dye-based FLIPR assay; format: functional, cell-based
T1 sequence (P11229 whole entry): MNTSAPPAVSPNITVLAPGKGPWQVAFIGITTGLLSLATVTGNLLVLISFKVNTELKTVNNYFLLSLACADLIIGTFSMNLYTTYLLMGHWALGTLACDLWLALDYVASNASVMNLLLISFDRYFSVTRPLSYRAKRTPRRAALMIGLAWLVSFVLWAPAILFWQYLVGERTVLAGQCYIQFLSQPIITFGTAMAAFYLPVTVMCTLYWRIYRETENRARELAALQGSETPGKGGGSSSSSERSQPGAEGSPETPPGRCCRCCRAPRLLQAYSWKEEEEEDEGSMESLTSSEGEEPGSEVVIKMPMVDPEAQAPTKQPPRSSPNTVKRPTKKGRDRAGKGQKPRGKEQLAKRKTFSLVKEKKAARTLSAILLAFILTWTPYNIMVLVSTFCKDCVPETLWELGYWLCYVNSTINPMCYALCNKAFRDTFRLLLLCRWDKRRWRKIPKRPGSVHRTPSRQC

[7] = Intrinsic clearance in human liver microsomes; format: ADME, microsome; details: read-out: CLH
MDR1 = assay: Efflux ratio of permeability in MDCK cells expressing MDR1; format: ADME, cell-based, Canis lupus familiaris; details: dog
[8] = Drug level in rabbit liver microsomes treated with 4-(4-(1H-pyrazol-1-yl)benzyl)-N-((3R,4S)-3-hydroxytetrahydro-2H-pyran-4-yl)-5-methylpicolinamide at 20 uM after 60 mins by UHPLC-UV-HRMS analysis; format: ADME, Oryctolagus cuniculus, microsome
[9] = Drug level in guinea pig liver microsomes treated with 1-(4-(1H-pyrazol-1-yl)benzyl)-N-((1S,2S)-2-hydroxycyclohexyl)-1H-pyrrolo[3,2-b]pyridine-3-carboxamide at 20 uM after 75 mins by UHPLC-UV-HRMS analysis; format: ADME, Cavia porcellus, microsome; details: 1.25 h
[10] = Drug level in rabbit liver microsomes treated with 5-(4-(1H-pyrazol-1-yl)benzyl)-N-((1S,2S)-2-hydroxycyclohexyl)-1,6-dimethyl-2-oxo-1,2-dihydropyridine-3-carboxamide at 20 uM after 60 mins by UHPLC-UV-HRMS analysis; format: ADME, Oryctolagus cuniculus, microsome
[11] = Drug metabolism in rabbit liver microsomes assessed as formation of 5-(4-(1H-pyrazol-1-yl)benzyl)-N-((1S,2S)-2,4-dihydroxycyclohexyl)-6-(hydroxymethyl)-1-methyl-2-oxo-1,2-dihydropyridine-3-carboxamide at 20 uM after 60 mins by UHPLC-UV-HRMS analysis; format: ADME, Oryctolagus cuniculus, microsome
[12] = Drug metabolism in rabbit liver microsomes assessed as formation of 5-(4-(1H-pyrazol-1-yl)benzyl)-N-((1S,2S)-2-hydroxycyclohexyl)-6-(hydroxymethyl)-1-methyl-2-oxo-1,2-dihydropyridine-3-carboxamide at 20 uM after 60 mins by UHPLC-UV-HRMS analysis; format: ADME, Oryctolagus cuniculus, microsome
[13] = Drug metabolism in rabbit liver microsomes assessed as formation of 5-(4-(1H-pyrazol-1-yl)benzyl)-N-((1S,2S)-2,5-dihydroxycyclohexyl)-6-methyl-2-oxo-1,2-dihydropyridine-3-carboxamide at 20 uM after 60 mins by UHPLC-UV-HRMS analysis; format: ADME, Oryctolagus cuniculus, microsome
[14] = Drug metabolism in rabbit liver microsomes assessed as formation of 5-(4-(1H-pyrazol-1-yl)benzyl)-N-((1S,2S)-2,4-dihydroxycyclohexyl)-1,6-dimethyl-2-oxo-1,2-dihydropyridine-3-carboxamide at 20 uM after 60 mins by UHPLC-UV-HRMS analysis; format: ADME, Oryctolagus cuniculus, microsome
[15] = Drug level in dexamethasone-induced rat liver microsomes treated with N-((3R,4S)-3-hydroxytetrahydro-2H-pyran-4-yl)-5-methyl-4-(4-(thiazol-4-yl)benzyl)picolinamide at 20 uM after 60 mins by UHPLC-UV-HRMS analysis; format: ADME, microsome; details: 1 h
[16] = Drug metabolism in rabbit liver microsomes assessed as formation of 4-(4-(1H-pyrazol-1-yl)benzyl)-N-((4S,5R)-2,5-dihydroxytetrahydro-2H-pyran-4-yl)-5-methylpicolinamide at 20 uM after 60 mins by UHPLC-UV-HRMS analysis; format: ADME, Oryctolagus cuniculus, microsome
[17] = Drug metabolism in rabbit liver microsomes assessed as formation of 4-((4-(1H-pyrazol-1-yl)phenyl)(hydroxy)methyl)-N-((3R,4S)-3-hydroxytetrahydro-2H-pyran-4-yl)-5-methylpicolinamide at 20 uM after 60 mins by UHPLC-UV-HRMS analysis; format: ADME, Oryctolagus cuniculus, microsome
[18] = Drug metabolism in rabbit liver microsomes assessed as formation of 4-(4-(1H-pyrazol-1-yl)benzyl)-N-((3R,4S)-2,3-dihydroxytetrahydro-2H-pyran-4-yl)-5-methylpicolinamide at 20 uM after 60 mins by UHPLC-UV-HRMS analysis; format: ADME, Oryctolagus cuniculus, microsome
[19] = Drug metabolism in rabbit liver microsomes assessed as formation of 4-(4-(1H-pyrazol-1-yl)benzyl)-5-(hydroxymethyl)-N-((3R,4S)-3-hydroxytetrahydro-2H-pyran-4-yl)picolinamide at 20 uM after 60 mins by UHPLC-UV-HRMS analysis; format: ADME, Oryctolagus cuniculus, microsome
[20] = Drug metabolism in rabbit liver microsomes assessed as formation of 4-(4-(1H-pyrazol-1-yl)benzyl)-5-methyl-N-((2R,3S)-1,2,5-trihydroxypentan-3-yl)picolinamide at 20 uM after 60 mins by UHPLC-UV-HRMS analysis; format: ADME, Oryctolagus cuniculus, microsome
[21] = Drug metabolism in rabbit liver microsomes assessed as formation of 4-(4-(4-hydroxy-1H-pyrazol-1-yl)benzyl)-N-((3R,4S)-3-hydroxytetrahydro-2H-pyran-4-yl)-5-methylpicolinamide at 20 uM after 60 mins by UHPLC-UV-HRMS analysis; format: ADME, Oryctolagus cuniculus, microsome

SMILES: Cc1ccc2c(n1)c(C(=O)N[C@H]1CCOC[C@@H]1O)cn2Cc1ccc(-c2ccn(C)n2)cc1
Papp [1]: 21 ×10⁻⁶ cm/s

SMILES: O=C(N[C@H]1CCCC[C@@H]1O)c1cn(Cc2ccc(-n3cccn3)cc2)c2cccnc12
Papp [1]: 16.2 ×10⁻⁶ cm/s

SMILES: O=C(N[C@H]1CCOC[C@@H]1O)c1cn(Cc2ccc(-c3cc[nH]n3)cc2)c2cccnc12
Drug metabolism [2]: Metabolite_Detected

SMILES: Cn1ccc(-c2ccc(Cn3cc(C(=O)N[C@H]4CCOC[C@@H]4O)c4nc(CO)ccc43)cc2)n1
Drug metabolism [5]: Metabolite_Detected | EC50 [6]: 99 nM

SMILES: Cn1ccc(-c2ccc(Cn3cc(C(=O)N[C@H]4CC(O)OC[C@@H]4O)c4ncccc43)cc2)n1 (some centres not stated)
Drug metabolism [2]: Metabolite_Detected | EC50 [6]: > 207 nM

SMILES: Cn1ccc(-c2ccc(Cn3cc(C(=O)N[C@H]4CCOC[C@@H]4O)c4nc(C=O)ccc43)cc2)n1
Drug metabolism [5]: Metabolite_Detected | EC50 [6]: 184 nM

SMILES: O=C(N[C@H]1CCCC[C@@H]1O)c1cn(Cc2ccc([N+]3([O-])C=CC=N3)cc2)c2cccnc12 (some centres not stated)
Drug metabolism [9]: Metabolite_Detected | EC50 [6]: 34 nM

SMILES: Cc1cnc(C(=O)N[C@@H](CCO)[C@@H](O)CO)cc1Cc1ccc(-n2cccn2)cc1
Drug metabolism [8]: Metabolite_Detected | EC50 [6]: > 300 nM

SMILES: O=C(N[C@H]1CC(O)CC[C@@H]1O)c1cn(Cc2ccc(-n3cccn3)cc2)c2cccnc12 (some centres not stated)
Drug metabolism [9]: Metabolite_Detected | EC50 [6]: > 72 nM

SMILES: Cc1[nH]c(=O)c(C(=O)N[C@H]2CC(O)CC[C@@H]2O)cc1Cc1ccc(-n2cccn2)cc1 (some centres not stated)
Drug metabolism [10]: Metabolite_Detected | EC50 [6]: 12 nM

SMILES: O=C(N[C@H]1C(O)CCC[C@@H]1O)c1cn(Cc2ccc(-n3cccn3)cc2)c2cccnc12 (some centres not stated)
Drug metabolism [9]: Metabolite_Detected | EC50 [6]: > 249 nM

SMILES: Cn1c(CO)c(Cc2ccc(-n3cccn3)cc2)cc(C(=O)N[C@H]2CCC(O)C[C@@H]2O)c1=O (some centres not stated)
Drug metabolism [10]: Metabolite_Detected | EC50 [6]: 177 nM

SMILES: Cn1ccc(-c2ccc(Cn3cc(C(=O)N[C@H]4CCOC(O)[C@@H]4O)c4ncccc43)cc2)n1 (some centres not stated)
Drug metabolism [2]: Metabolite_Detected | EC50 [6]: > 257 nM

SMILES: Cc1cnc(C(=O)N[C@H]2CCOC[C@@H]2O)cc1C(O)c1ccc(-c2cscn2)cc1 (stereo in doubt; 14a)
EC50 [6]: > 4150 nM | Drug metabolism [15]: Metabolite_Detected

SMILES: Cc1cnc(C(=O)N[C@H]2CCOC[C@@H]2O)cc1C(O)c1ccc(-c2cscn2)cc1 (stereo in doubt; 14b)
EC50 [6]: > 1100 nM

SMILES: O=C(N[C@H]1CCC(O)C[C@@H]1O)c1cn(Cc2ccc(-n3cccn3)cc2)c2cccnc12 (stereo in doubt; 20a)
Drug metabolism [9]: Metabolite_Detected | EC50 [6]: 167 nM

SMILES: O=C(N[C@H]1CCC(O)C[C@@H]1O)c1cn(Cc2ccc(-n3cccn3)cc2)c2cccnc12 (stereo in doubt; 20b)
EC50 [6]: 16 nM

Next, values leading:

Drug metabolism [3]: Metabolite_Detected | Drug metabolism [4]: Metabolite_Detected
SMILES: Cc1cnc(C(=O)N[C@H]2CCOC[C@@H]2O)cc1Cc1ccc(-c2cscn2)cc1

CLint scaled [7]: < 8 mL/min/kg | efflux ratio (MDR1): 15.9 | Papp [1]: 4.6 ×10⁻⁶ cm/s | Drug metabolism [8]: Metabolite_Detected | EC50 [6]: 338 nM
SMILES: O=C(N[C@H]1CCOC[C@@H]1O)c1cc(Cc2ccc(-n3cccn3)cc2)c(CO)cn1

Drug metabolism [8]: Metabolite_Detected | EC50 [6]: 70 nM
SMILES: Cc1cnc(C(=O)N[C@H]2CCOC[C@@H]2O)cc1Cc1ccc(-n2cc(O)cn2)cc1

Drug metabolism [10]: Metabolite_Detected | EC50 [6]: 40 nM
SMILES: Cn1c(CO)c(Cc2ccc(-n3cccn3)cc2)cc(C(=O)N[C@H]2CCCC[C@@H]2O)c1=O

Drug metabolism [11]: Metabolite_Detected | Drug metabolism [12]: Metabolite_Detected | efflux ratio (MDR1): 2.7 | Drug metabolism [13]: Metabolite_Detected | Drug metabolism [14]: Metabolite_Detected
SMILES: Cc1c(Cc2ccc(-n3cccn3)cc2)cc(C(=O)N[C@H]2CCCC[C@@H]2O)c(=O)n1C

Drug metabolism [8]: Metabolite_Detected | EC50 [6]: > 3000 nM
SMILES: Cc1cnc(C(=O)N[C@H]2CC(O)OC[C@@H]2O)cc1Cc1ccc(-n2cccn2)cc1 (some centres not stated)

Drug metabolism [8]: Metabolite_Detected | EC50 [6]: 511 nM
SMILES: Cc1cnc(C(=O)N[C@H]2CCOC(O)[C@@H]2O)cc1Cc1ccc(-n2cccn2)cc1 (some centres not stated)

EC50 [6]: 162 nM | Drug metabolism [15]: Metabolite_Detected
SMILES: Cc1cnc(C(=O)N[C@H]2CCOC(O)[C@@H]2O)cc1Cc1ccc(-c2cscn2)cc1 (some centres not stated)

Drug metabolism [10]: Metabolite_Detected | EC50 [6]: 63 nM
SMILES: Cc1c(Cc2ccc(-n3cccn3)cc2)cc(C(=O)N[C@H]2CCC(O)C[C@@H]2O)c(=O)n1C (some centres not stated)

Drug metabolism [16]: Metabolite_Detected | Drug metabolism [17]: Metabolite_Detected | Drug metabolism [18]: Metabolite_Detected | Drug metabolism [19]: Metabolite_Detected | Drug metabolism [20]: Metabolite_Detected | Drug metabolism [21]: Metabolite_Detected
SMILES: Cc1cnc(C(=O)N[C@H]2CCOC[C@@H]2O)cc1Cc1ccc(-n2cccn2)cc1

Drug metabolism [8]: Metabolite_Detected | EC50 [6]: > 1000 nM
SMILES: Cc1cnc(C(=O)N[C@H]2CCOC[C@@H]2O)cc1C(O)c1ccc(-n2cccn2)cc1 (stereo in doubt; 11a)

EC50 ([6]; cho): > 1000 nM
SMILES: Cc1cnc(C(=O)N[C@H]2CCOC[C@@H]2O)cc1C(O)c1ccc(-n2cccn2)cc1 (stereo in doubt; 11b)

Source: ChEMBL document CHEMBL4219254, “Harnessing biosynthesis and quantitative NMR for late stage functionalization of lead molecules: Application to the M1 positive allosteric modulator (PAM) program” (Bioorg Med Chem Lett, 2018)
